What was measured:
MCF-7 cells = assay: Breast Cancer Cell Viability Assay (MCF7 Viability Assay); assay type: cell-based; conditions: for IC50: Homo sapiens, MCF7, 120 h, read-out: MCF7 Viability Assay IC50; for MCF7 Viability Assay Max Response: MCF-7 cells, 5 days' compound exposure, CellTiter-Glo
ER-α = molecular target: T1, ER-α (Homo sapiens, UniProt P03372); assay: Breast Cancer Cell ER-α in Cell Western Assay (SP1); assay type: cell-based; conditions: MCF7, read-out: ER In-Cell Western Assay (SP1); Max Response
T1 construct: endogenous in cells; host or cells: MCF-7
Procedure: Breast Cancer Cell ER-α in Cell Western Assay (SP1)
MCF-7 cells were adjusted to a concentration of 200,000 cells per mL in RPMI containing 10% charcoal-stripped FBS and 20 mM HEPES. 16 microliters of the cell suspension (3200 cells) was added to each well of a poly-D-lysine 384 well plate, and the cells were incubated overnight to allow the cells to adhere. The following day an eleven point, serial semilog dilution of each compound was added to the cells in 16 μL at a final concentration ranging from 0.3-0.000003 μM. At 4 or 24 hr post compound addition, the cells were fixed (10% formalin in PBS) for 20 minutes. Cells were permeablized in PBS 0.1% Triton and blocked with LICOR blocking buffer (50 μl/well, 90′). The wells were then incubated overnight at 4° C. with SP1 rabbit monoclonal Ab (Thermo Scientific) diluted 1:1000 in LICOR blocking buffer/0.1% Tween-20. Wells which were treated with blocking buffer with Tween but no antibody were used as a background control. Wells were washed with 0.1% Tween-20/PBS and then incubated in goat anti-rabbit IRDye™ 800CW (LICOR Inc.; 1:1000) and DRAQ5 DNA dye (1:2000 for 2 mM stock) diluted in LICOR blocking buffer containing 0.1% Tween-20 and 0.01% SDS for 60 minutes. Cells were washed (50 μl/well, 5′ each) in 0.1% Tween-20/PBS. Plates were scanned on a LICOR Odyssey infrared imaging system. Integrated intensities in the 800 nm channel and 700 nm channel were measured to determine levels of ER and DNA respectively. Percent ER levels were determined as follows: (Integrated intensity 800 nm sample/integrated intensity 700 nm sample)/(Integrated intensity 800 nm untreated cells/integrated intensity 700 nm untreated cells)×100=% ER levels.

T1 sequence (P03372 whole entry): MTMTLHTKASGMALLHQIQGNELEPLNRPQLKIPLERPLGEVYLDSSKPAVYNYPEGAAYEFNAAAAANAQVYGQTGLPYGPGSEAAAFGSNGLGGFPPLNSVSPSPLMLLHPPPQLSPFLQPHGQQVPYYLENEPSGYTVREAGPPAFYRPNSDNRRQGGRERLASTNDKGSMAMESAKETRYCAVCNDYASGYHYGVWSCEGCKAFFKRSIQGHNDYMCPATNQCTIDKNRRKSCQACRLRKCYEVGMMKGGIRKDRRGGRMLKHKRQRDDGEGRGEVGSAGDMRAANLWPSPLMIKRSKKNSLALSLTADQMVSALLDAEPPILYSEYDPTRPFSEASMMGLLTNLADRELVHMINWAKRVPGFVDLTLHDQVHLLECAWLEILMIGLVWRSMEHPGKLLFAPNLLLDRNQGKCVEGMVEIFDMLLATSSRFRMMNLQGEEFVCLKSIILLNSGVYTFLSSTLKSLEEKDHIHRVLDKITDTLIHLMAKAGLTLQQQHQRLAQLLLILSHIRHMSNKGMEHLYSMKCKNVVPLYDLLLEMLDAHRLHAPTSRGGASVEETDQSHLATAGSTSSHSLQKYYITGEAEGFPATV

For `CC1=C(c2ccc(C#N)cc2)C(c2ccc(OC[C@H](C)N3CC[C@@H](C)C3)cc2)Oc2ccc(O)cc21` (stereo partly drawn) [Example 5, 4-(6-Hydroxy-4-methyl-2-(4-((S)-2-((R)-3-methylpyrrolidin-1-yl)propoxy)phenyl)-2H-chromen-3-yl)benzonitrile], the IC50 (MCF-7 cells) was greater than 1 nM, the “MCF7 Viability Assay Max Response” value (MCF-7 cells) was “++ (++ = a single % value ≧50%)” and the Emax (ER-α) was 60 to 85%.

In the case of `CC1=C(c2cc(O)ccc2Br)C(c2ccc(OC[C@H](C)N3CC[C@@H](C)C3)cc2)Oc2ccc(O)cc21` (stereo partly drawn) [Example 2, 3-(2-Bromo-5-hydroxyphenyl)-4-methyl-2-(4-((S)-2-((R)-3-methylpyrrolidin-1-yl)propoxy)phenyl)-2H-chromen-6-ol], the IC50 (MCF-7 cells) is reported as less than 1 nM, the “MCF7 Viability Assay Max Response” value (MCF-7 cells) is reported as “++ (++ = a single % value ≧50%)” and the Emax (ER-α) is reported as greater than 85%.

`CO[C@@H]1CCN([C@@H](C)COc2ccc(C3Oc4ccc(O)cc4C(C)=C3c3cccc(O)c3)cc2)C1` (stereo partly drawn) [Example 25, 3-(3-Hydroxyphenyl)-2-(4-((S)-2-((R)-3-methoxypyrrolidin-1-yl)propoxy)phenyl)-4-methyl-2H-chromen-6-ol] was tested, and the IC50 (MCF-7 cells) was less than 1 nM, the “MCF7 Viability Assay Max Response” value (MCF-7 cells) was “++ (++ = a single % value ≧50%)” and the Emax (ER-α) was 60 to 85%.

For `CC1=C(c2ccc(Br)cc2C)C(c2ccc(OC[C@H](C)N3CC[C@@H](C)C3)cc2)Oc2ccc(O)cc21` (stereo partly drawn) [Example 4, 3-(4-Bromo-2-methylphenyl)-4-methyl-2-(4-((S)-2-((R)-3-methylpyrrolidin-1-yl)propoxy)phenyl)-2H-chromen-6-ol], the IC50 (MCF-7 cells) was greater than 1 nM, the “MCF7 Viability Assay Max Response” value (MCF-7 cells) was “++ (++ = a single % value ≧50%)” and the Emax (ER-α) was 60 to 85%.

`CC1=C(c2ccc(C#N)c(O)c2)C(c2ccc(OC[C@H](C)N3CC[C@@H](C)C3)cc2)Oc2ccc(O)cc21` (stereo partly drawn) [Example 10, 2-Hydroxy-4-(6-hydroxy-4-methyl-2-(4-((S)-2-((R)-3-methylpyrrolidin-1-yl)propoxy)phenyl)-2H-chromen-3-yl)benzonitrile] was tested, and the IC50 (MCF-7 cells) was greater than 1 nM, the “MCF7 Viability Assay Max Response” value (MCF-7 cells) was “++ (++ = a single % value ≧50%)” and the Emax (ER-α) was greater than 85%.

In the case of `CC1=C(c2ccccc2C#N)C(c2ccc(OC[C@H](C)N3CC[C@@H](C)C3)cc2)Oc2ccc(O)cc21` (stereo partly drawn) [Example 14, 2-(6-Hydroxy-4-methyl-2-(4-((S)-2-((R)-3-methylpyrrolidin-1-yl)propoxy)phenyl)-2H-chromen-3-yl)benzonitrile], the IC50 (MCF-7 cells) is reported as greater than 1 nM, the “MCF7 Viability Assay Max Response” value (MCF-7 cells) is reported as “++ (++ = a single % value ≧50%)” and the Emax (ER-α) is reported as 60 to 85%.

With `CC1=C(c2ccc(O)cc2C#N)C(c2ccc(OC[C@H](C)N3CC[C@@H](C)C3)cc2)Oc2ccc(O)cc21` (stereo partly drawn) [Example 12, 5-Hydroxy-2-(6-hydroxy-4-methyl-2-(4-((S)-2-((R)-3-methylpyrrolidin-1-yl)propoxy)phenyl)-2H-chromen-3-yl)benzonitrile] the IC50 (MCF-7 cells) was less than 1 nM, the “MCF7 Viability Assay Max Response” value (MCF-7 cells) was “++ (++ = a single % value ≧50%)” and the Emax (ER-α) was 60 to 85%.

`COc1cccc(C2=C(C)c3cc(O)ccc3OC2c2ccc(OC[C@H](C)N3CC[C@@H](C)C3)cc2)c1` (stereo partly drawn) [Example 31, 3-(3-Methoxyphenyl)-4-methyl-2-(4-((S)-2-((R)-3-methylpyrrolidin-1-yl)propoxy)phenyl)-2H-chromen-6-ol] was tested, and the IC50 (MCF-7 cells) was greater than 1 nM, the “MCF7 Viability Assay Max Response” value (MCF-7 cells) was “++ (++ = a single % value ≧50%)” and the Emax (ER-α) was 60 to 85%.

With `CC1=C(c2cccc(S(C)(=O)=O)c2)C(c2ccc(OC[C@H](C)N3CC[C@@H](C)C3)cc2)Oc2ccc(O)cc21` (stereo partly drawn) [Example 15, 4-Methyl-2-(4-((S)-2-((R)-3-methylpyrrolidin-1-yl)propoxy)phenyl)-3-(3-(methylsulfonyl)phenyl)-2H-chromen-6-ol] the IC50 (MCF-7 cells) was greater than 1 nM, the “MCF7 Viability Assay Max Response” value (MCF-7 cells) was “++ (++ = a single % value ≧50%)” and the Emax (ER-α) was 60 to 85%.

Source: patent publication US9187460B2, “Estrogen receptor modulators and uses thereof” (SERAGON PHARMACEUTICALS, INC., priority 2011, dated 2015)
